# Measurements: patent US7407648B2, “Merocyanine derivatives for cosmetic use” (Ciba Specialty Chemicals Corp., priority 2002, dated 2008)
# Assay: UV absorption spectroscopic data (λmax, ε, E 1%/1 cm) of the merocyanine UV absorbers
# Assay type: physicochemical
# Parameters: λmax: unit not given beside the values
# Settings: for λmax [nm]: Table MC1; for E (1%, 1 cm) / ε / λmax / λmax (sh): Table MC3; for ε: at λmax; for λmax (sh): shoulder
structure (smiles),measurement,setting,value
CCCCC(CC)COC(=O)/C(C#N)=C1/C=C(NCCNC2=C/C(=C(\C#N)C(=O)OCC(CC)CCCC)CC(C)(C)C2)CC(C)(C)C1 (centres unmarked) [MC01],λmax [nm],in MeOH,362 (MeOH) nm
CCOC(=O)C(C(=O)OCC)=C1C=C(NCCNC2=CC(=C(C(=O)OCC)C(=O)OCC)CC(C)(C)C2)CC(C)(C)C1 [MC03],λmax [nm],in MeOH,372 (MeOH) nm
CC1(C)CC(NCCNC2=CC(=C(C#N)C#N)CC(C)(C)C2)=CC(=C(C#N)C#N)C1 [MC04],λmax [nm],in MeOH,361 (MeOH) nm
CCOC(=O)/C(=C1\C=C(NCCNC2=C/C(=C(\C(=O)OCC)S(=O)(=O)c3ccccc3)CCC2)CCC1)S(=O)(=O)c1ccccc1 [MC05],λmax [nm],in MeOH,362 (MeOH) nm
Cc1ccc(S(=O)(=O)/C(C#N)=C\C=C2\OCC(C)(C)N2C)cc1 [MC06],λmax [nm],in MeOH,374 (MeOH) nm
CCOC(=O)C(C(=O)OCC)=C1C=C(N2CCN(C3=CC(=C(C(=O)OCC)C(=O)OCC)CC(C)(C)C3)CC2)CC(C)(C)C1 [MC08],λmax [nm],in MeOH,373 (MeOH) nm
CCOC(=O)/C(C#N)=C1\C=C(NC2CCCCC2NC2=C/C(=C(/C#N)C(=O)OCC)CC(C)(C)C2)CC(C)(C)C1 (centres unmarked) [MC09],λmax [nm],in MeOH,370 (MeOH) nm
CCOC(=O)C(C(=O)OCC)=C1C=C(NC2CCCCC2NC2=CC(=C(C(=O)OCC)C(=O)OCC)CC(C)(C)C2)CC(C)(C)C1 (centres unmarked) [MC10],λmax [nm],in MeOH,362 (MeOH) nm
CCOC(=O)/C(C#N)=C1\C=C(NCCN(CCNC2=C/C(=C(/C#N)C(=O)OCC)CC(C)(C)C2)CCNC2=C/C(=C(\C#N)C(=O)OCC)CC(C)(C)C2)CC(C)(C)C1 [MC11],λmax [nm],in MeOH,375 (MeOH) nm
CN(CCCNC1=CC(=C2C(=O)CC(C)(C)CC2=O)CCC1)CCCNC1=CC(=C2C(=O)CC(C)(C)CC2=O)CCC1 [MC12],λmax [nm],in MeOH,392 (MeOH) nm
CC1(C)CC(NCCCOCCOCCNC2=CC(=C3C(=O)OC(C)(C)OC3=O)CC(C)(C)C2)=CC(=C2C(=O)OC(C)(C)OC2=O)C1 [MC13],λmax [nm],in MeOH,380 (MeOH) nm
CCOC(=O)C(C(=O)OCC)=C1C=C(NCc2ccc(CNC3=CC(=C(C(=O)OCC)C(=O)OCC)CCC3)cc2)CCC1 [MC14],λmax [nm],in MeOH,392 (MeOH) nm
CCCCCCNC(=O)/C(=C1\C=C(NCCCNC2=C/C(=C(\C(=O)NCCCCCC)S(=O)(=O)c3ccccc3)CCC2)CCC1)S(=O)(=O)c1ccccc1 [MC16],λmax [nm],in MeOH,390 (MeOH) nm
CCCCC(CC)COC(=O)/C(=C1\C=C(NCCCNC2=C/C(=C(\C(=O)OCC(CC)CCCC)S(=O)(=O)c3ccccc3)CCC2)CCC1)S(=O)(=O)c1ccccc1 (centres unmarked) [MC17],λmax [nm],in MeOH,385 (MeOH) nm
CCOC(=O)/C(C#N)=C1\C=C(NCCCCCCNC2=C/C(=C(/C#N)C(=O)OCC)CCC2)CCC1 [MC18],λmax [nm],in MeOH,384 (MeOH) nm
CCOC(=O)C(C(=O)OCC)=C1C=C(NCCCCCCNC2=CC(=C(C(=O)OCC)C(=O)OCC)CCC2)CCC1 [MC19],λmax [nm],in MeOH,373 (MeOH) nm
COc1cc(OC(=O)/C(C(C)=O)=C2/C=C(NCC(C)NC3=C/C(=C(\C(C)=O)C(=O)Oc4cc(OC)c(OC)c(OC)c4)CC(C)(C)C3)CC(C)(C)C2)cc(OC)c1OC (centres unmarked) [MC22],λmax [nm],in MeOH,395 (MeOH) nm
CCOC(=O)/C(C#N)=C1\C=C(NC2CC(C)(C)CC(C)(CNC3=C/C(=C(\C#N)C(=O)OCC)CC(C)(C)C3)C2)CC(C)(C)C1 (centres unmarked) [MC24],λmax [nm],in MeOH,388 (MeOH) nm
CCOC(=O)C(C(=O)OCC)=C1C=C(NCC2(C)CC(NC3=CC(=C(C(=O)OCC)C(=O)OCC)CC(C)(C)C3)CC(C)(C)C2)CC(C)(C)C1 (centres unmarked) [MC25],λmax [nm],in MeOH,395 (MeOH) nm
CCCCC(CC)CNC(=O)/C(C#N)=C1/C=C(N2CCN(C3=C/C(=C(\C#N)C(=O)NCC(CC)CCCC)CC(C)(C)C3)C(C)C2)CC(C)(C)C1 (centres unmarked) [MC26],λmax [nm],in MeOH,374 (MeOH) nm
CC(=O)/C(C(=O)OCC(C)C)=C1/C=C(NCC(C)(CNC2=C/C(=C(\C(C)=O)C(=O)OCC(C)C)CC(C)(C)C2)CNC2=C/C(=C(\C(C)=O)C(=O)OCC(C)C)CC(C)(C)C2)CC(C)(C)C1 [MC27],λmax [nm],in MeOH,385 (MeOH) nm
CCCCC(CC)(CCCNC1=C/C(=C(/C(=O)OCC)C(=O)c2ccc(OC)cc2)CCC1)CNC1=C/C(=C(/C(=O)OCC)C(=O)c2ccc(OCC)cc2)CCC1 (centres unmarked) [MC28],λmax [nm],in MeOH,373 (MeOH) nm
COCCOC(=O)/C(C(C)=O)=C1/C=C(NCCC(C)(C)CC(C)CNC2=C/C(=C(\C(C)=O)C(=O)OCCOC)CC(C)C2)CC(C)C1 (centres unmarked) [MC29],λmax [nm],in MeOH,383 (MeOH) nm
CC(=O)/C(C(=O)NCCNC(=O)/C(C(C)=O)=C1/C=C(N2CCCCC2)CCC1)=C1\C=C(N2CCCCC2)CCC1 [MC30],λmax [nm],in MeOH,385 (MeOH) nm
CC(=O)/C(C(=O)Nc1ccc(NC(=O)/C(C(C)=O)=C2/C=C(N3CCCC3)CC(C)(C)C2)cc1)=C1\C=C(N2CCCC2)CC(C)(C)C1 [MC31],λmax [nm],in MeOH,394 (MeOH) nm
CCOC(=O)/C(=C1\C=C(NC(C)CC)CCC1)C(OC)(C(=O)OCC)/C(C(=O)OCC)=C1/C=C(NC(C)CC)CCC1 (centres unmarked) [MC33],λmax [nm],in MeOH,375 (MeOH) nm
CC1(C)CC(NC2CCCCC2NC2=CC(=C(C#N)C#N)CC(C)(C)C2)=CC(=C(C#N)C#N)C1 (centres unmarked) [MC34],λmax [nm],in MeOH,383 (MeOH) nm
COC(=O)C(C(=O)OC)=C1C=C(NC2CCCCC2NC2=CC(=C(C(=O)OC)C(=O)OC)CCC2)CCC1 (centres unmarked) [MC35],λmax [nm],in MeOH,374 (MeOH) nm
CCCCCCN(C=CC=C(C(C)=O)S(=O)(=O)c1ccc(C)cc1)CC [MC36],λmax [nm],in MeOH,385 (MeOH) nm
CCCCC(CC)COC(=O)C(C#N)=CC=CN(CC)CC (centres unmarked) [MC39],λmax [nm],in EtOH,380 (EtOH) nm
same,"E (1%, 1 cm)",,2037
same,ε,,62400 L/mol/cm
same,λmax,solvent not given,380
CCCCCCCCOC(=O)/C(=C\C=C\N(CC)CC)S(=O)(=O)c1ccccc1 [MC172],"E (1%, 1 cm)",,1724
same,ε,,72700 L/mol/cm
same,λmax,solvent not given,371
CCCCC(CC)COC(=O)/C(C#N)=C\C=C\N(CC)CCCN(/C=C/C=C(/C#N)C(=O)OCC(CC)CCCC)CC (centres unmarked) [MC173],"E (1%, 1 cm)",,1545
same,ε,,92000 L/mol/cm
same,λmax,solvent not given,390
CCCCC(CC)COC(=O)/C(C#N)=C/C=C/N1CCN(/C=C/C=C(\C#N)C(=O)OCC(CC)CCCC)CC1 (centres unmarked) [MC174],"E (1%, 1 cm)",,2650
same,ε,,146 379
same,λmax,solvent not given,398
CN(C)/C=C/C=C1C(=O)OC(C)(C)OC1=O [MC175],"E (1%, 1 cm)",,3022
same,ε,,68000 L/mol/cm
same,λmax,solvent not given,383
COC(=O)C(=C/C=C/N(C)C)C(=O)OC [MC177],"E (1%, 1 cm)",,2488
same,ε,,53000 L/mol/cm
same,λmax,solvent not given,373
COC(=O)C(=C/C=C/N1CCOCC1)C(=O)OC [MC178],"E (1%, 1 cm)",,1476
same,ε,,37700 L/mol/cm
same,λmax,solvent not given,373
COC(=O)C(=C/C=C/N1CCCCC1)C(=O)OC [MC179],"E (1%, 1 cm)",,1953
same,ε,,49500 L/mol/cm
same,λmax,solvent not given,377
COC(=O)C(=C/C=C/N(C(C)C)C(C)C)C(=O)OC [MC180],"E (1%, 1 cm)",,2111
same,ε,,56800 L/mol/cm
same,λmax,solvent not given,378
CCOC(=O)C(=C/C=C/N1CCOCC1)C(=O)OCC [MC181],"E (1%, 1 cm)",,1684
same,ε,,47700 L/mol/cm
same,λmax,solvent not given,371
CCCCN(/C=C/C=C(C(=O)OCC)C(=O)OCC)CCCC [MC182],"E (1%, 1 cm)",,1423
same,ε,,60600 L/mol/cm
same,λmax,solvent not given,377
CCCCC(CC)COC(=O)/C(C#N)=C\C=C\N(CC)CCCCN(/C=C/C=C(/C#N)C(=O)OCC(CC)CCCC)CC (centres unmarked) [MC183],"E (1%, 1 cm)",,2570
same,ε,,111000 L/mol/cm
same,λmax (sh),solvent not given,370
same,λmax,solvent not given,386
CCCCC(CC)COC(=O)/C(C#N)=C1\C=C(N2CCOCC2)CC(C)(C)C1 (centres unmarked) [MC184],λmax,acetonitrile,399
CCCCC(CC)COC(=O)/C(C#N)=C1\C=C(NC(C)CC)CC(C)(C)C1 (centres unmarked) [MC185],λmax,acetonitrile,388
same,λmax (sh),acetonitrile,368
CCOC(=O)C(C(=O)OCC)=C1C=C(N2CCOCC2)CC(C)(C)C1 [MC186],λmax,acetonitrile,376
